# In US8772318B2, “Methods and compositions related to targeting monoacylglycerol lipase” (The Scripps Research Institute, priority 2008, dated 2014):
# What was measured:
# [1] = system: brain levels of 2-AG, arachidonic acid, NAEs, MAGs, free fatty acids; assay: Measurement of brain lipids in treated mice; assay type: in vivo, mouse; details: URB597 10 mg/kg, i.p.
# Protocol: Measurement of brain lipids. One half brain was weighed and subsequently Dounce homogenized in 2:1:1 v/v/v CHCl3:MeOH:Tris pH 8.0 (8 ml) containing standards for N-acylethanolamine (NAE), monoacylglycerol (MAG), or free fatty acid (FFA) measurements (200 pmol d4-OEA, 20 pmol d4-AEA, 400 pmol C15:0-MAG, and 4 nmol PDA). The mixture was vortexed and then centrifuged (1,400×g, 10 min). The organic layer was removed, CHCl3 was added until the final volume was again 8 ml, and the extraction was repeated. The combined organic extracts were dried under a stream of N2 and resolubilized in 2:1 v/v CHCl3:MeOH (120 μl). 30 uL and 15 uL of resolubilized lipid were injected for positive mode (MAG and NAE) and negative mode (free fatty acid) measurements, respectively. Lipid measurements were performed by LC-MS using the same instrument and solvents as described above. Solvent modifiers such as 0.1% formic acid or 0.1% ammonium hydroxide were included to assist in ion formation in positive and negative ionization mode, respectively. For positive mode measurements, the flow rate for each run started at 0.1 ml/min for 5 min. […] MAGs, NAEs, and FFAs were quantified by measuring the area under the peak in comparison to the C15:0 or deuterated standards. […]
# FAAH = biological target: T1, FAAH (Mus musculus, UniProt O08914); assay: FAAH activity of brain membranes from treated mice (competitive ABPP, oleamide substrate assay); assay type: in vivo; details: URB597 10 mg/kg, i.p.
# T1 construct: from tissue; host or cells: mouse brain membrane fraction
# T1 sequence (O08914 1-579): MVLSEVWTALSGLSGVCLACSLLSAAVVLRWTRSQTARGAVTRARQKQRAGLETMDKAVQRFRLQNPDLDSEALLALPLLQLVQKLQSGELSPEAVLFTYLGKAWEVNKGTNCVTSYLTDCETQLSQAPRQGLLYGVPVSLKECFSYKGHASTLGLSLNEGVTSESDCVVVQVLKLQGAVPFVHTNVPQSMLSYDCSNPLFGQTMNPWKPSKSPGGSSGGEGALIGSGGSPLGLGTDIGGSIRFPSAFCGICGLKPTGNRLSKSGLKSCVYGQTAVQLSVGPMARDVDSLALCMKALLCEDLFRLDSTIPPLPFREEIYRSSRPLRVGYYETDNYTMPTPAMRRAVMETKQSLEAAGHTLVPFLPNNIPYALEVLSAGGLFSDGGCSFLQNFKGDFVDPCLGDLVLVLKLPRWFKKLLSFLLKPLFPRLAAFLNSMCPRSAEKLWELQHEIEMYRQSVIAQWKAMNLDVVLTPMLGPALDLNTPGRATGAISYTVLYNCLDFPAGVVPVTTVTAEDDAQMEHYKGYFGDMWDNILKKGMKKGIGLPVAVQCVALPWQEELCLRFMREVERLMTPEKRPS
# Protocol: Enzyme activity assays. Briefly, 2-AG (100 μM) was incubated with mouse brain membrane (20 μg) or recombinant MAGL in COS7 cells (0.1 μg) in PBS (200 μl) at room temperature for 10 min. The reactions were quenched by the addition of 500 μL 2:1 v/v CHCl3:MeOH, doped with 0.5 nmol PDA, vortexed, then centrifuged (1,400×g, 3 min) to separate the phases. 30 ul of the resultant organic phase was injected onto an Agilent 1100 series LC-MSD SL instrument. […] Mobile phase A was composed of 95:5 v/v H2O:MeOH, and mobile phase B was composed of 60:35:5 v/v/v i-PrOH:MeOH:H2O. 0.1% ammonium hydroxide was included to assist in ion formation in negative ionization mode. […] Hydrolysis products were quantified by measuring the area under the peak in comparison to the PDA standard. ^13C-oleamide or AEA hydrolysis activity was determined using mouse brain membrane (50 μg) or recombinant FAAH in COST cells (5 μg), respectively, in PBS (100 μl). […] DAGLβ hydrolysis activity was determined using recombinant DAGLβ in HEK293 cells (50 μg) in PBS (100 μl). […]
# Competitive activity-based protein profiling (ABPP) experiments. […] After 30 min at room temperature, the reactions were quenched with 4×SDS-PAGE loading buffer, boiled for 5 min at 90° C., subjected to SDS-PAGE, and visualized in-gel using a flatbed fluorescence scanner. […]
# [2] = Acetic acid abdominal stretching (writhing) assay; assay type: in vivo, mouse; details: rimonabant 3 mg/kg before JZL184 16 mg/kg
# Protocol: A second group of naïve subjects (n=10-11 mice/group) were evaluated in the acetic acid stretching assay. […] Acetic acid (0.6%) was injected intraperitoneally in a volume of 10 μl/g body weight 120 min after the second injection. The number of stretches (constriction of abdomen, turning of trunk (twist) and extension of the body and hind limbs) per mouse was counted during a 20-min period after the administration of acetic acid.
# [3] = Bar test (catalepsy, hyperreflexia); assay type: in vivo, mouse; details: rimonabant 3 mg/kg before JZL184 16 mg/kg
# Protocol: (§1) Behavioral Studies. […] A total of four groups of mice were used, with a sample size of 14 mice/group. Before injections, the mice were evaluated for baseline responses in the tail immersion test, as well for rectal temperatures. […] For determining hypomotility each mouse was placed in a clear Plexiglas box (42.7×21.0×20.4 cm) for a 10 min assessment period and Anymaze (Stoelting, Wood Dale, Ill.) software was used to determine the percentage of time spent immobile. Subjects were assessed for nociception in the tail immersion assay. Each mouse was placed head first into a small bag fabricated from absorbent under pads (VWR Scientific Products; 4 cm diameter, 11 cm length) with the tail out of the bag. The experimenter gently held the mouse and immersed approximately 1 cm of the tip of the tail into a water bath maintained at 56.0° C. The latency for the animal to withdraw its tail from the water within a 10 s cutoff time was scored. Catalepsy was evaluated using the bar test, in which the front paws of each subject were placed on a rod (0.75 cm diameter) that was elevated 4.5 cm above the surface. Mice that remained motionless with their paws on the bar for 10 s (with the exception of respiratory movements) were scored as cataleptic. […] Rectal temperature was determined by inserting a thermocouple probe 2.0 cm into the rectum and temperature was obtained from a telethermometer.
# [4] = Locomotor activity (hypomotility); assay type: in vivo, mouse
# Protocol: as §1
# [5] = system: human cancer cell lines (C8161, SKOV3, 231MFP, MUM2C, OVCAR3); assay: Cell migration assay (Transwell); assay type: cell-based; details: antagonist 1 μM, 4 hr
# Protocol: Cell migration, cell survival, and invasion studies. Migration assays were performed in Transwell chambers (Corning) with 8 μm pore-sized membranes coated with 10 μg/ml collagen for 4 h at 37° C. A total of 24 hr before the start of the migration assay, cancer cell lines were plated at a concentration of 1×10^6 cells per 6 cm dish. At the start of the migration assay, cells were harvested by washing two times with PBS and were then serum starved in serum-free media for 4 hr. Inhibitor, lipid or vehicle (0.1% DMSO) were preincubated with the cells during this 4 h time. Serum-starved cells were trypsinized, spun at 1400×g for 3 min, resuspended, and counted. 50,000 cells were seeded in the upper chamber of the transwells in 200 μl serum-free media (containing inhibitor, lipid or vehicle). Inhibitor, lipid or vehicle was also added to the lower chamber, and cells were allowed to migrate for 5 h (for C8161 and 231MFP cells) or 20 hr (SKOV3, MUM2C and OVCAR3 cells). The filters were then fixed and stained with Diff-Quik (Dade Behring). Cells that had not migrated through the chamber were removed with a cotton ball. The cells that migrated were counted at a magnification of 400×, and 4 fields were independently counted from each migration chamber. An average of cells in 4 fields for one migration chamber represents n=1.
# [6] = Tail immersion assay of thermal pain sensation; assay type: in vivo, mouse; details: rimonabant 3 mg/kg before JZL184 16 mg/kg
# Protocol: as §1
# [7] = system: human cancer cell lines (C8161, SKOV3, 231MFP, MUM2C, OVCAR3); assay: Lipid measurements in cancer cells; assay type: cell-based; details: antagonist 1 μM, 4 hr
# Protocol: Pharmacological inhibition of MAGL in cancer cells. Pharmacological inhibition studies were conducted as described previously (Chiang et al., Chem. Biol. 13:1041-1050, 2006). Cancer cells were maintained in RPMI medium 1640 with 10% (v/v) fetal calf serum at 37° C. in a humidified atmosphere of 5% CO2/95% air. At 80% confluency, cells were trypsinized and counted using a hemocytometer, and 1×10^6 cells were plated in 6 cm dishes (subconfluent). […] After incubation for 4 hr, the cells were harvested and analyzed by ABPP or LC-MS.
# Lipid measurements in cancer cells. Lipid measurements were conducted similarly to protocols described previously (Chiang et al., 2006; supra). Cancer cells were grown in serum-free media for 4 hrs to minimize the contribution of serum-derived lipids to the cellular profiles. The cells (1×10^6 cells/6 cm dish, 80% confluency) were washed with twice with phosphate buffer saline (PBS), isolated by centrifugation at 1,400×g, and dounce-homogenized in 4 ml of a 2:1:1 mixture of chloroform:methanol:Tris buffer. Samples were homogenized in the presence of the following synthetic standards: C12:0 MAGE (10 nmol), C15:0 FFA (10 nmol). Organic and aqueous layers were separated by centrifugation at 2000×g for 5 min and the organic layer was collected. The aqueous layer was acidified (for metabolites such as LPA) by adding 5% formic acid, followed by the addition of 2 ml chloroform. The mixture was vortexed, and the organic layers were combined, dried down under N2 and dissolved in 100 μl chloroform, of which 30 μl was analyzed by LC-MS.
# LC-MS analysis was performed by using an Agilent 1100 LC-MSD SL instrument. […] Mobile phase A was composed of a 95:5 ratio of water:methanol, and mobile phase B consisted of 2-propanol, methanol, and water in a 60:35:5 ratio. Solvent modifiers such as 0.1% formic acid and 0.1% ammonium hydroxide were used to assist ion formation as well as to improve the LC resolution in both positive and negative ionization modes, respectively. The flow rate for each run started at 0.1 ml/min for 5 min, to alleviate backpressure associated with injecting chloroform. The gradient started at 0% B and increased linearly to 100% B over the course of 45 min with a flow rate of 0.4 ml/min, followed by an isocratic gradient of 100% B for 17 min at 0.5 ml/min before equilibrating for 8 min at 0% B with a flow rate of 0.5 ml/min. MS analysis was performed with an electrospray ionization (ESI) source. The capillary voltage was set to 3.0 kV, and the fragmentor voltage was set to 100 V. The drying gas temperature was 350° C., the drying gas flow rate was 10 L/min, and the nebulizer pressure was 35 psi.
# Lipidomic analysis was performed in both targeted and untargeted mode by LC-MS analysis. Standard lipid classes were quantitated by targeting using selected ion monitoring (SIM) (except for very high-abundance metabolites which were quantitated by untargeted analysis) and identities of metabolites were confirmed by coelution of metabolites with their respective standards and mass accuracy to within 10 ppm as determined with an accurate mass Agilent 6520 Accurate Mass QTOF-MS-MS. These lipids were quantified by measuring the area under the peak and were normalized to an internal standard (C12:0 MAGE in positive mode or C15:0 FFA in negative mode). […]
# [8] = Rectal temperature (hypothermia); assay type: in vivo, mouse; details: rimonabant 3 mg/kg before JZL184 16 mg/kg
# Protocol: as §1
structure (smiles),measurement,setting,value
NC(=O)c1cccc(-c2cccc(OC(=O)NC3CCCCC3)c2)c1 [URB597],brain 2-AG or arachidonic acid levels,[1],without altering
same,brain anandamide and other NAEs,[1],significant elevations
same,brain FAAH activity,FAAH,completely inhibited
Cc1c(C(=O)NN2CCCCC2)nn(-c2ccc(Cl)cc2Cl)c1-c1ccc(Cl)cc1 [rimonabant],"effect of rimonabant pre-treatment on JZL184 analgesia, acetic acid writhing",[2],blocked
same,effect of rimonabant on JZL184 hyperreflexia effect,[3],completely blocked
same,"movement, rimonabant on its own",[4]; rimonabant 3 mg/kg,significant reductions in movement
same,effect of rimonabant on JZL184-induced immobility,[4]; rimonabant 3 mg/kg before JZL184 16 mg/kg,partial blockade
same,migratory defect in shMAGL cancer cells,[5],not rescued
same,"effect of rimonabant pre-treatment on JZL184 analgesia, tail immersion",[6],blocked
same,FFA levels in shControl and shMAGL cancer cells,[7],unchanged
same,effect of rimonabant on JZL184 hypothermic effect,[8],completely blocked
